Test results: the NIST ThermoML archive (doi:10.1021/acs.jced.8b01042)
± gives the expanded uncertainty stated by the source.

Assays:
[1] = xn = mol fraction of the nth substance listed; conditions: 298.15 K; 101.3 kPa; Liquid; Capillary tube (Ostwald / Ubbelohde) method; x1 = 0.66
[2] = 298.15 K; 100 kPa; Liquid; Capillary tube (Ostwald / Ubbelohde) method

SMILES | viscosity [1] [mPa·s] | viscosity [2] [mPa·s]
OC1COCOC1 [1,3-dioxan-5-ol] + OCC1COCO1 | 20.05 ± 0.84 | –
CC1(C)OCC(CO)O1 (stereo not drawn) [2,2-dimethyl-1,3-dioxolane-4-methanol] | – | 10.06 ± 0.42
OCC(O)CO [glycerol] | – | 1200 ± 97
